According to US7842671B1, “Peptidomimetic inhibitors of STAT activity and uses thereof” (University of South Florida, priority 2003, dated 2010):
Read-outs that look alike come from different tables or passages of the source. Square brackets hold non-standard residues; d marks the D form. Peptide text beside a SMILES is read from it. * marks the point of attachment. pY = N[CH](Cc1ccc(OP(=O)(O)O)cc1)C(=O)O; Nicotinoyl = O=C(c1cccnc1)*; 3Abz = Nc1cccc(C(=O)O)c1; Isobutyryl = CC(C)C(=O)*; 2Abz = Nc1ccccc1C(=O)O

Experiments:
[1] = molecular target: Stat3 (Mus musculus, UniProt P42227); experiment: EMSA of Stat3 DNA-binding activity in nuclear extracts (hSIE probe); assay type: biochemical; set-up: nuclear extracts (prepared from epidermal growth factor (EGF)-stimulated fibroblasts); endogenous in cells; host or cells: NIH3T3 fibroblasts stimulated with EGF
Sequence of Stat3 (P42227 whole entry): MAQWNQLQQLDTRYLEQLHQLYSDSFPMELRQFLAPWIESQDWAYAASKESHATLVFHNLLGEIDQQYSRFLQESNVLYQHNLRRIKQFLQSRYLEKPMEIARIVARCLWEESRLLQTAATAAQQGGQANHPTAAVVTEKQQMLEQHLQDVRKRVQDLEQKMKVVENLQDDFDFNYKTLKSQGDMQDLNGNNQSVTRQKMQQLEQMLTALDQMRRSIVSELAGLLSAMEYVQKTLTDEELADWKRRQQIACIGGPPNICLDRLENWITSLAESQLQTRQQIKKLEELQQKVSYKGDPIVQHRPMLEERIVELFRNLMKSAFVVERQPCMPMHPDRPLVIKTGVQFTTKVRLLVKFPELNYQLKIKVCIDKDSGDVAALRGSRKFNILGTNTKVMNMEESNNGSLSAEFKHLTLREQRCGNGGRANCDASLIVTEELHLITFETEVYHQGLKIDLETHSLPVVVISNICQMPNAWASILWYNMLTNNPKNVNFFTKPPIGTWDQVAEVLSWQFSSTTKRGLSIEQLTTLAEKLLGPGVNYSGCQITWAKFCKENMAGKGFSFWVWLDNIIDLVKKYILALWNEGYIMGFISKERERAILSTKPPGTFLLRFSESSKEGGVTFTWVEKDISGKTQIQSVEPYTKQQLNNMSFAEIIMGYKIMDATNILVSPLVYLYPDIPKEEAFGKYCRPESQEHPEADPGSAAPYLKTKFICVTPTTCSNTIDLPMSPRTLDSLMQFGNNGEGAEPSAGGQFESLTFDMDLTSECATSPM
Method: (§1) Nuclear extract preparation and gel shift assays. Nuclear extracts were prepared from cell lines and used for electrophoretic mobility shift assay (EMSA) as previously described (Garcia, R. et al. (1997); Yu, C. L. et al. (1995); Turkson, J. et al. (1998)). In some cases, cells were pre-treated with peptidomimetics for the indicated times (12-48 h) prior to harvesting for nuclear extract preparation. In other studies, nuclear extracts were pre-incubated with peptidomimetics for 30 min at room temperature prior to incubation with radiolabeled probe. The ^32P-radiolabeled oligonucleotide probes used are hSIE (high affinity sis-inducible element, m67 variant, 5′-[…]-3′) (SEQ ID NO. 3) that binds both Stat1 and Stat3 (Garcia, R. et al. (1997); Wagner B. J. et al. (1990)) and MGFe (mammary gland factor element from the bovine β-casein gene promoter, 5′-[…]-3′) (SEQ ID NO. 4) that binds Stat1 and Stat5 (Gouilleux, F. et al. (1995); Seidel, H. M. et al. (1995)).
(§2) Peptidomimetics of the invention can be prepared by replacing prolyl or alanyl residue at the peptide bond that is N-terminal to the phosphotyrosine (Y*) of a peptide such as PY*L or AY*L with an organic substituent such as an optionally substituted aryl or heteroaryl group. The activities of STATs were measured in nuclear extracts (prepared from epidermal growth factor (EGF)-stimulated fibroblasts) as DNA-bound protein complexes by electrophoretic mobility shift assay (EMSA).
From densitometric analysis of band intensities, the IC50 values (concentration of peptidomimetic at which DNA-binding activity is reduced by 50%), which are reported in Table 3, were determined.

[2] = molecular target: T1, Stat1:Stat3 (Mus musculus, UniProt P42227); experiment: EMSA of Stat1:Stat3 heterodimer DNA-binding in nuclear extracts (hSIE probe); assay type: biochemical; conditions: nuclear extracts pre-incubated 30 min, mean and SD of at least 3 assays, read-out: IC50 values against STAT Dimers, Stat1:Stat3
T1 construct: nuclear extracts (prepared from epidermal growth factor (EGF)-stimulated fibroblasts); endogenous in cells; host or cells: NIH3T3 fibroblasts stimulated with EGF
T1 sequence (P42227 whole entry): as above
Method: as §1, §2

[3] = molecular target: T2, Stat1:Stat1 (Mus musculus, UniProt P42225); experiment: EMSA of Stat1:Stat1 DNA-binding in nuclear extracts; assay type: biochemical; conditions: nuclear extracts pre-incubated 30 min, EMSA; mean and SD of at least 3 assays; read-out: IC50 values against STAT Dimers, Stat1:Stat1
T2 construct: nuclear extracts (prepared from epidermal growth factor (EGF)-stimulated fibroblasts); endogenous in cells; host or cells: NIH3T3 fibroblasts stimulated with EGF
T2 sequence (P42225 1-749): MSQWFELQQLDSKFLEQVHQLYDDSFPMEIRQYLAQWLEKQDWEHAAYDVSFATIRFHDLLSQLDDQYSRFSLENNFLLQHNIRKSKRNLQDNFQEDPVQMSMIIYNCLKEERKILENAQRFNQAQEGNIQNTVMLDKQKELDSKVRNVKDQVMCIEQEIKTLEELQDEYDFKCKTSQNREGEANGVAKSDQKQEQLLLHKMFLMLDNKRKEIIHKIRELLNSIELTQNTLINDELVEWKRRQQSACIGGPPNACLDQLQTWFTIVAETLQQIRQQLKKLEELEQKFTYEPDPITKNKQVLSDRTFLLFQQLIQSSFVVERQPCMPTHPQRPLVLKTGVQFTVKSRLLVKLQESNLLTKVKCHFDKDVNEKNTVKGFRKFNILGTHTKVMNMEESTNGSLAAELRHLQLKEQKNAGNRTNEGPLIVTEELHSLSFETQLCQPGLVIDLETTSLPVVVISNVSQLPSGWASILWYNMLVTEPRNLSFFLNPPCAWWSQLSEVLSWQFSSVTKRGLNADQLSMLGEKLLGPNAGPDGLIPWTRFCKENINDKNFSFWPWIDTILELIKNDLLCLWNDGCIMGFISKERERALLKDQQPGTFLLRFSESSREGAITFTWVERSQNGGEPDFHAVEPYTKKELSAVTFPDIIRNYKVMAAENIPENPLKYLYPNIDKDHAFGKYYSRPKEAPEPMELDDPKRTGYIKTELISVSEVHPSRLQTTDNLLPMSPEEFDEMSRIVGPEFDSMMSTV
Method: as §1
as §2, with “(EMSA). STAT-DNA complexes detected include Stat3:Stat3 homodimers (upper band), Stat1:Stat3 heterodimers (intermediate band) and Stat1:Stat1 homodimers (lower band) (FIG. 1A) when a ^32P-labeled hSIE oligonucleotide probe is used, or Stat5:Stat5 (upper band) and Stat1:Stat1 dimers (lower band) (FIG. 1B) when ^32P-labeled MGFe is used as a probe.” for “(EMSA).”

[4] = molecular target: Stat5:Stat5; experiment: EMSA of Stat5:Stat5 DNA-binding in nuclear extracts; assay type: biochemical, mouse; conditions: nuclear extracts pre-incubated 30 min, mean and SD of at least 3 assays, read-out: IC50 values against STAT Dimers, Stat5:Stat5
Method: as §1
as §2, with “(EMSA). STAT-DNA complexes detected include Stat3:Stat3 homodimers (upper band), Stat1:Stat3 heterodimers (intermediate band) and Stat1:Stat1 homodimers (lower band) (FIG. 1A) when a ^32P-labeled hSIE oligonucleotide probe is used, or Stat5:Stat5 (upper band) and Stat1:Stat1 dimers (lower band) (FIG. 1B) when ^32P-labeled MGFe is used as a probe.” for “(EMSA).”

[5] = nuclear extracts pre-incubated 30 min, hSIE probe, EMSA, mean and SD of at least 3 assays, read-out: IC50, disruption of Stat3 DNA-binding activity

| Structure (SMILES) | IC50 [1] [µM] | IC50 [1, 5] [µM] | also measured |
| --- | --- | --- | --- |
| CC(=O)NC(Cc1ccc(OP(=O)(O)O)cc1)C(=O)NC(CC(C)C)C(=O)O (centres unmarked) [ISS230] (Ac-[pY]-Leu-OH; configuration not given here) | > 1000 |  |  |
| CC(C)CC(NC(=O)C(Cc1ccc(OP(=O)(O)O)cc1)NC(=O)C(C)C)C(=O)O (centres unmarked) [ISS234] (Isobutyryl-[pY]-Leu-OH; configuration not given here) | > 1000 |  |  |
| CC(C)CC(NC(=O)C(Cc1ccc(OP(=O)(O)O)cc1)NC(=O)c1cccnc1)C(=O)O (centres unmarked) [ISS 219] (Nicotinoyl-[pY]-Leu-OH; configuration not given here) |  | 232 |  |
| Cc1ncccc1C(=O)NC(Cc1ccc(OP(=O)(O)O)cc1)C(=O)NC(CC(C)C)C(=O)O (centres unmarked) [ISS 221] |  | 75 | IC50 [2]: 455 µM; IC50 [3]: 310 µM; IC50 [4]: 50 µM; effect on Stat3 DNA-binding activity in vitro (in words) ([1]; nuclear extracts, EMSA): potent disrupters of active Stat3 |
| Cc1ccc(C(=O)NC(Cc2ccc(OP(=O)(O)O)cc2)C(=O)NC(CC(C)C)C(=O)O)cn1 (centres unmarked) [ISS 223] | 225 |  |  |
| CC(C)CC(NC(=O)C(Cc1ccc(OP(=O)(O)O)cc1)NC(=O)c1cccc(N)c1)C(=O)O (centres unmarked) [ISS 248] (H-[3Abz]-[pY]-Leu-OH; configuration not given here) | > 1000 |  |  |
| CC(C)CC(NC(=O)C(Cc1ccc(OP(=O)(O)O)cc1)NC(=O)c1ccc(N)nc1)C(=O)O (centres unmarked) [ISS 249] | > 1000 |  |  |
| CC(C)CC(NC(=O)C(Cc1ccc(OP(=O)(O)O)cc1)NC(=O)c1ccccc1N)C(=O)O (centres unmarked) [ISS 265] (H-[2Abz]-[pY]-Leu-OH; configuration not given here) |  | > 1000 |  |
| CC(C)CC(NC(=O)C(Cc1ccc(OP(=O)(O)O)cc1)NC(=O)c1cccc2ccccc12)C(=O)O (centres unmarked) [ISS 352] | 410 |  |  |
| CC(C)CC(NC(=O)C(Cc1ccc(OP(=O)(O)O)cc1)NC(=O)c1ccc2ccccc2c1)C(=O)O (centres unmarked) [ISS 353] |  | 650 |  |
